Reference: US10160771B2, “Hepatitis C virus inhibitors and uses thereof in preparation of drugs” (priority 2014, dated 2018)
pEC50: −log10 of the molar value.

Assays:
[1] = Cell Titer-fluor cell activity assay in HCV-1b replicon cells (CC50); assay type: cell-based
Method in brief: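 CC50 derived by nonlinear fitting of inhibition % from Cell Titer-fluor signal (405/515 nm, 30 min). Cells: genotype 1b Con1 replicon carrying E1202G, T1280I, K1846T, seeded 8000/well with compound for 3 days, 37 °C, 0.5% DMSO; 6 points, 5-fold dilution, top 100, 10 or 1 nM, duplicates.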

[2] = test system: HCV genotype 1a (HCV-1a) replicon cells; test: HCV genotype 1a replicon luciferase assay (EC50); assay type: cell-based, hepatitis C virus genotype 1a (H77 clone); conditions: Hepatitis C virus, 72 h, 3 days, luciferase (Bright-Glo)
Method in brief: (§1)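 EC50 by nonlinear fitting of % inhibition from Bright-Glo luciferase signal after 3-day, 37° C. compound exposure (5-fold, 6 points from 100, 10 or 1 nM; 0.5% DMSO; duplicates). Cells: 1a replicon from H77 (K1691R/K2040R/S2204I) or 1b from Con1 (E1202G/T1280I/K1846T), 8000 per well.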

[3] = test system: HCV genotype 1b (HCV-1b) replicon cells; test: HCV genotype 1b replicon luciferase assay (EC50); assay type: cell-based, hepatitis C virus genotype 1b (Con1 clone); conditions: Hepatitis C virus, 72 h, 3 days, luciferase (Bright-Glo)
Method in brief: as §1

SMILES	CC50 at 3 days [1]	pEC50 [2]	pEC50 [3]
COC(=O)N[C@H](C(=O)N1CCC[C@H]1c1ncc(-c2ccc(-c3ccc(-c4cnc(C5C6CCC(C6)[C@H]5C(=O)N[C@H](C)c5cccnc5)[nH]4)cc3)cc2)[nH]1)[C@@H](C)OC (stereo partly drawn) [AA_253_B]	> 1 nM	7.00 to 8.00	9.00 to 10.00
COC(=O)N[C@H](C(=O)N1CCC[C@H]1c1ncc(-c2ccc(-c3ccc(-c4cnc(C5C6CCC(C6)[C@@H]5C(=O)NCc5cncc(C(C)C)c5)[nH]4)cc3)cc2)[nH]1)[C@@H](C)OC (stereo partly drawn) [AA_254_A]	> 1 nM	7.00 to 8.00	9.00 to 10.00
COC(=O)N[C@H](C(=O)N1CCC[C@H]1c1ncc(-c2ccc(-c3ccc(-c4cnc(C5C6CCC(C6)[C@@H]5C(=O)NCc5cccnc5C(F)(F)F)[nH]4)cc3)cc2)[nH]1)[C@@H](C)OC (stereo partly drawn) [AA_255_A]	> 1 nM	7.00 to 8.00	10.00 to 12.00
COC(=O)N[C@H](C(=O)N1CCC[C@H]1c1ncc(-c2ccc(-c3ccc(-c4cnc(C5C6CCC(C6)[C@H]5C(=O)NCc5cccnc5C(F)(F)F)[nH]4)cc3)cc2)[nH]1)[C@@H](C)OC (stereo partly drawn) [AA_255_B]	> 1 nM	7.00 to 8.00	10.00 to 12.00
COC(=O)N[C@H](C(=O)N1CCC[C@H]1c1ncc(-c2ccc(-c3ccc(-c4cnc(C5C6CCC(C6)[C@@H]5C(=O)NCc5cccnc5C5CC5)[nH]4)cc3)cc2)[nH]1)[C@@H](C)OC (stereo partly drawn) [AA_256_A]	> 1 nM	7.00 to 8.00	10.00 to 12.00
COC(=O)N[C@H](C(=O)N1CCC[C@H]1c1ncc(-c2ccc(-c3ccc(-c4cnc(C5C6CCC(C6)[C@@H]5C(=O)NCc5cccnc5OC)[nH]4)cc3)cc2)[nH]1)[C@@H](C)OC (stereo partly drawn) [AA_257_A]	> 1 nM	8.00 to 9.00	9.00 to 10.00
COC(=O)N[C@H](C(=O)N1CCC[C@H]1c1ncc(-c2ccc(-c3ccc(-c4cnc(C5C6CCC(C6)[C@@H]5C(=O)NNc5cccnc5)[nH]4)cc3)cc2)[nH]1)[C@@H](C)OC (stereo partly drawn) [AA_258_B]	> 1 nM	7.00 to 8.00	8.00 to 9.00
COC(=O)N[C@H](C(=O)N1CCC[C@H]1c1ncc(-c2ccc(-c3ccc(-c4cnc(C5C6CCC(C6)[C@@H]5C(=O)NCc5cccnc5SC)[nH]4)cc3)cc2)[nH]1)[C@@H](C)OC (stereo partly drawn) [AA_259_A]	> 1 nM	7.00 to 8.00	10.00 to 12.00
COC(=O)N[C@H](C(=O)N1CCC[C@H]1c1ncc(-c2ccc(-c3ccc(-c4cnc(C5C6CCC(C6)[C@H]5C(=O)NCc5cccnc5SC)[nH]4)cc3)cc2)[nH]1)[C@@H](C)OC (stereo partly drawn) [AA_260_B]	> 1 nM	7.00 to 8.00	10.00 to 12.00
COC(=O)N[C@H](C(=O)N1CCC[C@H]1c1ncc(-c2ccc(-c3ccc(-c4cnc(C5C6CCC(C6)[C@H]5C(=O)N[C@@H](C)c5ccccc5)[nH]4)cc3)cc2)[nH]1)[C@@H](C)OC (stereo partly drawn) [AA_262_B]	> 1 nM	9.00 to 10.00	10.00 to 12.00
COC(=O)N[C@H](C(=O)N1CCC[C@H]1c1ncc(-c2ccc(-c3ccc(-c4cnc(C5C6CCC(C6)[C@@H]5C(=O)NCc5cccnc5O)[nH]4)cc3)cc2)[nH]1)[C@@H](C)OC (stereo partly drawn) [AA_263_B]	> 1 nM	8.00 to 9.00	9.00 to 10.00
COC(=O)N[C@H](C(=O)N1CCC[C@H]1c1ncc(-c2ccc(-c3ccc(-c4cnc(C5C6CCC(C6)[C@H]5C(=O)NCc5cccnc5O)[nH]4)cc3)cc2)[nH]1)[C@@H](C)OC (stereo partly drawn) [AA_263_C]	> 1 nM	7.00 to 8.00	9.00 to 10.00
COC(=O)N[C@H](C(=O)N1CCC[C@H]1c1ncc(-c2ccc(-c3ccc(-c4cnc(C5C6CCC(C6)[C@@H]5C(=O)NCc5ccc(C(F)(F)F)nc5)[nH]4)cc3)cc2)[nH]1)[C@@H](C)OC (stereo partly drawn) [AA_264_A]	> 1 nM	8.00 to 9.00	9.00 to 10.00
COC(=O)N[C@H](C(=O)N1CCC[C@H]1c1ncc(-c2ccc(-c3ccc(-c4cnc(C5C6CCC(C6)[C@H]5C(=O)NCc5ccc(C(F)(F)F)nc5)[nH]4)cc3)cc2)[nH]1)[C@@H](C)OC (stereo partly drawn) [AA_264_B]	> 1 nM	7.00 to 8.00	9.00 to 10.00
COC(=O)N[C@H](C(=O)N1CCC[C@H]1c1ncc(-c2ccc(-c3ccc(-c4cnc(C5C6CCC(C6)[C@@H]5C(=O)NCc5ccc(C(C)C)nc5)[nH]4)cc3)cc2)[nH]1)[C@@H](C)OC (stereo partly drawn) [AA_265_A]	> 1 nM	7.00 to 8.00	9.00 to 10.00
COC(=O)N[C@H](C(=O)N1CCC[C@H]1c1ncc(-c2ccc(-c3ccc(-c4cnc(C5C6CCC(C6)[C@H]5C(=O)NCc5ccc(C(C)C)nc5)[nH]4)cc3)cc2)[nH]1)[C@@H](C)OC (stereo partly drawn) [AA_265_B]	> 1 nM	7.00 to 8.00	9.00 to 10.00
COC(=O)N[C@H](C(=O)N1CCC[C@H]1c1ncc(-c2ccc(-c3ccc(-c4cnc(C5C6CCC(C6)[C@@H]5C(=O)NCCc5ccncc5)[nH]4)cc3)cc2)[nH]1)[C@@H](C)OC (stereo partly drawn) [AA_266_A]	> 1 nM	8.00 to 9.00	9.00 to 10.00
